# Assay results as given in article PMC6050537, “Inhibition of low-density lipoprotein receptor degradation with a cyclic peptide that disrupts the homodimerization of IDOL E3 ubiquitin ligase” (Chemical Science, 2018).
# Read-outs that look alike come from different tables or passages of the source. Residues, ends and D or L forms follow the SMILES beside them.
# Key:
# HepG2 cells = conditions: concentrations up to 100 μM, 72 h
# Protocol: (§1) Cell viability was assessed using the CellTiter-Glo 2.0 assay (Promega) according to the manufacturer's instructions. Briefly, cells were plated at a density of 3.3 × 10^4 cells per well in a 96 well plate and incubated overnight (37 °C, 5% CO2). Cells were treated with increasing concentrations of inhibitor and incubated in lipoprotein depleted serum for 72 h (37 °C, 5% CO2). The plate was equilibrated to room temperature for 30 min prior to the addition an equal volume of CellTiter-Glo 2.0 (Promega) reagent to media. The contents were mixed for 2 min on an orbital shaker to induce cell lysis and the plate incubated at room temperature for 10 min prior to the detection of a luminescent signal.
# (§2) Supplementary Figure 11. Cellular viability following peptide treatment. The viability of
# (§3) (a ) He pG2 a nd (b ) DIDOL He p G2 cells was determined following treatment with increasing
# (§4) concentrations of TAT-RINGPe p2 and TAT-ScramPep (100 µM). […]
# ΔIDOL HepG2 cells = conditions: concentrations up to 100 μM, 72 h
# Protocol: as §1, §2, §3, §4
# [1] = target: T1, 6× His-tagged, full-length IDOL (Homo sapiens, UniProt Q8WY64); assay: Surface plasmon resonance (SPR) affinity for IDOL; type: binding; conditions: for Kd: SPR, immobilized full-length His-IDOL, saturation at highest concentrations not observed; for binding to IDOL by SPR: linear counterparts of the cyclic peptides
# T1 construct: Full length IDOL (1–445) was cloned with a TEV cleavable N-terminal 6xHis tag; made in house; host or cells: Spodoptera frugiperda Sf21 (baculovirus, pFastbac1)
# T1 sequence (Q8WY64 1-445): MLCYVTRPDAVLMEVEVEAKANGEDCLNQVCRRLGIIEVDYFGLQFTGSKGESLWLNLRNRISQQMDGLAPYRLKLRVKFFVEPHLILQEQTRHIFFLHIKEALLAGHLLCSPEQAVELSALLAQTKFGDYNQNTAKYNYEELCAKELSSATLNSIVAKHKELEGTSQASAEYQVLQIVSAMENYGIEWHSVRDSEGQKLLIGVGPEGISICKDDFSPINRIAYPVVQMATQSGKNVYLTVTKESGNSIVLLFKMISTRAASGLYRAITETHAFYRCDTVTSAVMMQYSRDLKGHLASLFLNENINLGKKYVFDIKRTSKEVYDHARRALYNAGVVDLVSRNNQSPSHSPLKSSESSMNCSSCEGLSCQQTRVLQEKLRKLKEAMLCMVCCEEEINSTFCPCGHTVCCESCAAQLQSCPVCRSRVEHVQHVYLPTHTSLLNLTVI
# Source text: We initially assessed the affinity of the 6 selected cyclic peptides for IDOL by surface plasmon resonance (SPR). Although saturation at the highest concentrations was not observed, due to hydrophobic effects, Kd values could be determined for five peptides (Table 1). […] The hit rate for our IDOL screen is in line with that for previous SICLOPPS screens.[21],[25] It should be noted that although cyclo-CTIFLL and cyclo-CTLILF contain the same amino acids, changing the order in which these are arranged results in activity loss.
# All measurements were performed on a Biacore S200 (GE healthcare) using running buffer 10 mM HEPES, 300 mM NaCl, 1 mM TCEP, 0.05% Tween 20 and 4% DMSO at pH 8.0. In brief, 6× His-tagged, full-length IDOL was immobilized on a NTA-chip (Xantec), to a final level of ∼6000 RU. The chip was pre-loaded with Ni^2+ to facilitate efficient capture of His-tagged protein onto the chip. The activity of the immobilized protein was confirmed using a reference compound.
# Supplementary Figure 2. […] Saturation of binding was not observed due to the hydrophobic nature of the peptides
# (1 picture or pasted object on this page, not shown here)
# 6× His IDOL = target: T2, 6× His IDOL (Homo sapiens, UniProt Q8WY64); assay: Microscale thermophoresis (MST) binding to IDOL; conditions: full length His-IDOL (44 nM)
# T2 construct: Full length IDOL (1–445) was cloned with a TEV cleavable N-terminal 6xHis tag; made in house; host or cells: Spodoptera frugiperda Sf21 (baculovirus, pFastbac1)
# T2 sequence (Q8WY64 1-445): T1 sequence (Q8WY64 1-445)
# Source text: We sought to improve the affinity of RINGPep1 prior to assessing its effect in cells. We used alanine-scanning to identify residues that were critical to the activity of RINGpep1; we constructed 5 SICLOPPS plasmids where each amino acid (except the set cysteine, which is required for intein splicing) was replaced with alanine. These plasmids were transformed into the IDOL RTHS and assessed for disruption of IDOL homodimerization by drop-spotting. […] We therefore synthesized a handful of RINGPep1 analogues with the second position containing a non-natural phenylalanine analogue. After purification, the affinity of each of these compounds for IDOL was assessed by MST. […] The ability of RINGpep2 to disrupt IDOL homodimerization was assessed in vitro using a competition assay in which increasing concentrations of IDOL were titrated into a 45 nM solution of dye-labelled IDOL. Binding of non-labelled IDOL to dye-labelled IDOL will be observed in the MST signal, allowing the Kd of IDOL homodimerization to be quantified. Using this approach, we measured a Kd of 2.9 ± 0.1 μM for IDOL homodimerization. The experiment was repeated in the presence of RINGpep2 (100 μM), with the expectation that the apparent Kd of IDOL homodimerization would increase in the presence of an inhibitor of IDOL homodimerization.
# MST was performed on a Monilith NT.115 system (Nano Temper Technologies, DE). […]
# [2] = Solubility (qualitative remarks); type: physicochemical
# RING domain of IDOL = tested on: T3, RING domain of IDOL; assay: 1H 15N HSQC NMR binding to RING domain
# T3 construct: IDOL RING domain (G356-I445) was expressed as TEV cleavable N-terminal HN6-Lysine-Tag; HN6-Lysine-Tag (TEV-cleavable) (N); made in house; host or cells: E. coli (pET vector)
# Source text: (§5) The lead candidates, cyclo-CTIFLL and cyclo-CFFLYT, were next analyzed for binding to the RING domain of IDOL by ^1H ^15N HSQC NMR. We also assessed the binding of each peptide to the FERM domain of IDOL as a negative control. […] It should be noted that the 3 residues affected by cyclo-CFFLYT (named RINGPep1) form part of the PPI interface in the crystal structure of the homodimerized RING domains of IDOL (Fig. 1c and ESI Fig. 6 ^†).[15] Furthermore, mutation of V431R coupled with a L433R mutation is known to result in a dimer deficient IDOL.[15]
# (§6) ^15N-labeled RING and FERM domains were prepared for NMR experiments by buffer exchange using Amicon Ultra-4 Centrifugal Filter Units with 3 kDa molecular weight cut-off membranes. Buffer conditions for the NMR studies were 50 mM TRIS-d11 pH 7.5, 200 mM NaCl, 3 mM TCEP, 10% (v/v) D2O for the RING domain and 25 mM TRIS-d11, 25 mM NaPi, pH 7.5, 300 mM NaCl, 3 mM TCEP, 10% (v/v) D2O for the FERM domain. The protein concentrations were 80 μM and 70 μM, for the RING and FERM domain respectively. Two-dimensional NMR SOFAST-HMQC titration experiments were carried out on a Bruker 600 MHz spectrometer equipped with a cryoprobe. […]
# FERM domain of IDOL = tested on: T4, FERM domain of IDOL; assay: 1H 15N HSQC NMR binding to FERM domain (negative control)
# T4 construct: made in house; host or cells: E. coli BL21
# Source text: as §5, §6
compound,measurement,setting,value
CC(C)C[C@@H]1NC(=O)[C@H](CC2CCCCC2)NC(=O)[C@H](Cc2ccccc2)NC(=O)[C@H](CSSC[C@H](N)C(=O)NCC(=O)N[C@@H](CCCNC(=N)N)C(=O)N[C@@H](CCCCN)C(=O)N[C@@H](CCCCN)C(=O)N[C@@H](CCCNC(=N)N)C(=O)N[C@@H](CCCNC(=N)N)C(=O)N[C@@H](CCC(N)=O)C(=O)N[C@@H](CCCNC(=N)N)C(=O)N[C@@H](CCCNC(=N)N)C(=O)N[C@@H](CCCNC(=N)N)C(=O)N2CCC[C@H]2C(=O)N2CCC[C@H]2C(=O)N[C@@H](CCC(N)=O)C(=O)O)NC(=O)[C@H]([C@@H](C)O)NC(=O)[C@H](Cc2ccc(O)cc2)NC1=O [Tat-RINGPep2],toxicity,HepG2 cells,no toxicity
same,toxicity,ΔIDOL HepG2 cells,no toxicity
"CC[C@H](C)[C@@H]1NC(=O)[C@H](C(C)C)NC(=O)[C@H](C(C)C)NC(=O)[C@H](CO)NC(=O)[C@H](CS)NC(=O)[C@H](CC(C)C)NC1=O [cyclo-CSVVIL] (HELM PEPTIDE1{C.S.V.V.I.L}$PEPTIDE1,PEPTIDE1,1:R1-6:R2$$$V2.0)",Kd,[1]; read-out: Kd,~1000 µM
cyclo-CYLFT[Cha] [ScramPep],binding to IDOL by MST,6× His IDOL,did not bind
"CC[C@H](C)[C@@H]1NC(=O)[C@H](CC(C)C)NC(=O)[C@H](Cc2ccccc2)NC(=O)[C@H](CC(C)C)NC(=O)[C@H](CCCNC(=N)N)NC(=O)[C@H](CS)NC1=O [cyclo-CRLFLI] (HELM PEPTIDE1{C.R.L.F.L.I}$PEPTIDE1,PEPTIDE1,1:R1-6:R2$$$V2.0)",Kd,[1]; read-out: Kd,~3000 µM
"CC[C@H](C)[C@@H]1NC(=O)[C@H](Cc2ccccc2)NC(=O)[C@H](C(C)C)NC(=O)[C@H]([C@@H](C)O)NC(=O)[C@H](CS)NC(=O)[C@H]([C@@H](C)CC)NC1=O [cyclo-CTVFII] (HELM PEPTIDE1{C.T.V.F.I.I}$PEPTIDE1,PEPTIDE1,1:R1-6:R2$$$V2.0)",Kd,[1],No activity
"CC(C)C[C@@H]1NC(=O)[C@H](CC2CCCCC2)NC(=O)[C@H](Cc2ccccc2)NC(=O)[C@H](CS)NC(=O)[C@H]([C@@H](C)O)NC(=O)[C@H](Cc2ccc(O)cc2)NC1=O [RINGPep2, cyclo-CF-Cha-LYT] (HELM PEPTIDE1{C.F.[Cha].L.Y.T}$PEPTIDE1,PEPTIDE1,1:R1-6:R2$$$V2.0)",solubility in the assay buffer,[2]; autoubiquitination assay buffer,poor solubility
same,water solubility,[2]; compared with the 3-(1-naphthyl)-L-alanine analogue,marginally better
CTIFLL [linear counterpart of cyclo-CTIFLL],binding to IDOL by SPR,[1],no binding observed
"CC[C@H](C)[C@@H]1NC(=O)[C@H](CC(C)C)NC(=O)[C@H]([C@@H](C)O)NC(=O)[C@H](CS)NC(=O)[C@H](Cc2ccccc2)NC(=O)[C@H](CC(C)C)NC1=O [cyclo-CTLILF] (HELM PEPTIDE1{C.T.L.I.L.F}$PEPTIDE1,PEPTIDE1,1:R1-6:R2$$$V2.0)",Kd,[1]; read-out: Kd,~10000 µM
CC(C)C[C@@H]1NC(=O)[C@H](Cc2ccc(O)cc2)NC(=O)[C@H](CSSC[C@H](N)C(=O)NCC(=O)N[C@@H](CCCNC(=N)N)C(=O)N[C@@H](CCCCN)C(=O)N[C@@H](CCCCN)C(=O)N[C@@H](CCCNC(=N)N)C(=O)N[C@@H](CCCNC(=N)N)C(=O)N[C@@H](CCC(N)=O)C(=O)N[C@@H](CCCNC(=N)N)C(=O)N[C@@H](CCCNC(=N)N)C(=O)N[C@@H](CCCNC(=N)N)C(=O)N2CCC[C@H]2C(=O)N2CCC[C@H]2C(=O)N[C@@H](CCC(N)=O)C(=O)O)NC(=O)[C@H](CC2CCCCC2)NC(=O)[C@H]([C@@H](C)O)NC(=O)[C@H](Cc2ccccc2)NC1=O [Tat-ScramPep],toxicity,HepG2 cells,no toxicity
same,toxicity,ΔIDOL HepG2 cells,no toxicity
"CC[C@H](C)[C@@H]1NC(=O)[C@H]([C@@H](C)O)NC(=O)[C@H](CS)NC(=O)[C@H](CC(C)C)NC(=O)[C@H](CC(C)C)NC(=O)[C@H](Cc2ccccc2)NC1=O [cyclo-CTIFLL] (HELM PEPTIDE1{C.T.I.F.L.L}$PEPTIDE1,PEPTIDE1,1:R1-6:R2$$$V2.0)",Kd,[1]; read-out: Kd,20.9 ± 11 µM
same,"chemical shift changes, RING domain of IDOL",RING domain of IDOL,did not observe any chemical shift changes
same,"chemical shift changes, FERM domain of IDOL",FERM domain of IDOL,did not observe any chemical shift changes
CFFLYT [linear counterpart of cyclo-CFFLYT],binding to IDOL by SPR,[1],no binding observed
